# In article PMC9739877, “Discovery and Mechanistic Investigation of Piperazinone Phenylalanine Derivatives with Terminal Indole or Benzene Ring as Novel HIV-1 Capsid Modulators” (Molecules, 2022):
# Experiments:
# [1] = human, microsomes
# HIV-1 (IIIB) = assay: microbe, parasite or virus in culture; type: cell-based; conditions: Human immunodeficiency virus 1, MT4, 50% protection against HIV-induced cytotoxicity, MT-4 cells, MTT
# Description: (§1) II. In vitro anti-HIV Assay in MT-4 Cells
# (§2) Evaluation of the antiviral activity of the compounds against HIV in MT-4 cells was performed using the MTT assay as described below. Stock solutions (10 × final concentration) of test compounds were added in 25 µL volumes to two series of triplicate wells to allow simultaneous evaluation of their effects on mock- and HIV-infected cells at the beginning of each experiment. Serial 5-fold dilutions of test compounds were made directly in flat-bottomed 96-well microtiter trays using a Biomek 3000 robot (Beckman Instruments, Fullerton, CA). Untreated HIV- and mock-infected cell samples were included as controls. HIV stock (50 µL) at 100-300 CCID50 (50 % cell culture infectious doses) or culture medium was added to either the infected or mock-infected wells of the microtiter tray. Mock-infected cells were used to evaluate the effects of the test compound on uninfected cells to assess the test compounds' cytotoxicity. Exponentially growing MT-4 cells were centrifuged for 5 minutes at 220 g, and the supernatant was discarded. […]
# (§3) cells/mL, and 50 µL volumes were transferred to the microtiter tray wells. Five days after infection, the viability of mock-and HIV-infected cells was examined spectrophotometrically using the MTT assay. The MTT assay is based on the reduction of yellow colored 3-(4,5-dimethylthiazol-2-yl)-2,5-diphenyltetrazolium bromide (MTT) (Acros Organics) by mitochondrial dehydrogenase activity in metabolically active cells to a blue-purple formazan that can be measured spectrophotometrically. The absorbances were read in an eight-channel computer-controlled photometer (Infinite M1000, Tecan), at two wavelengths (540 and 690 nm). All data were calculated using the median absorbance value of three wells. […]
# (§4) was defined as the concentration of the test compound that reduced the absorbance (OD540) of the mock-infected control sample by 50%. The concentration achieving 50% protection against the cytopathic effect of the virus in infected cells was defined as the […]
# HIV-2 (ROD) = assay: Anti-HIV-2 (ROD) activity in MT-4 cells, MTT assay; type: cell-based; conditions: Human immunodeficiency virus 2, MT4, 50% protection against HIV-induced cytotoxicity
# Description: as §1, §2, §3, §4
# [2] = Cytotoxicity in mock-infected MT-4 cells, MTT assay; type: cell-based; conditions: human, 50% reduction of viability of mock-infected MT-4 cells
# Description: (§5) II. In vitro anti-HIV Assay in MT-4 Cells […]
# (§6) performed using the MTT assay as described below. Stock solutions (10 × final concentration) of test compounds were added in 25 µL volumes to two series of […]
# (§7) infected cells at the beginning of each experiment. Serial 5-fold dilutions of test […]
# (§8) Biomek 3000 robot (Beckman Instruments, Fullerton, CA). Untreated HIV- and mock-infected cell samples were included as controls. HIV stock (50 µL) at 100-300 CCID50 […]
# (§9) or mock-infected wells of the microtiter tray. Mock-infected cells were used to evaluate […]
# (§10) cytotoxicity. Exponentially growing MT-4 cells were centrifuged for 5 minutes at 220 g, and the supernatant was discarded. […]
# (§11) cells/mL, and 50 µL volumes were transferred to the microtiter tray wells. Five days […]
# (§12) spectrophotometrically using the MTT assay. The MTT assay is based on the reduction […]
# (§13) M1000, Tecan), at two wavelengths (540 and 690 nm). All data were calculated using the median absorbance value of three wells.
# (§14) (OD540) of the mock-infected control sample by 50%. The concentration achieving 50%
# MT-4 cells = assay: as above; type: cell-based; conditions: 50% reduction of viability of mock-infected MT-4 cells
# Description: as §5, §6, §7, §8, §9, §10, §11, §12, §13, §14
# HIV-1 CA monomer = biological target: T1, HIV-1 CA monomer (Human immunodeficiency virus type 1 group M subtype B, UniProt P12493); assay: biochemical; type: binding; conditions: SPR
# T1 construct: a vector containing C-terminally His-tagged HIV-1NL4-3CA; His6 (CA-H6) (C); made in house; host or cells: E. coli BL21-Codon Plus (DE3)-RIL
# HIV-1 CA hexamer = HIV-1 CA hexamer (Human immunodeficiency virus type 1 group M subtype B, UniProt P12493, A146C/E177C/M317A/W316A); assay: SPR binding to disulfide-stabilized hexameric HIV-1 CA
# in vitro [3] = conditions: human, microsomes
# in vitro [4] = conditions: both, human, plasma
structure (smiles),measurement,setting,value
"O=C(O)Cc1ccccc1Nc1c(Cl)cccc1Cl [Diclofenac, diclofenac]",CLint(liver),[1],334.8 mL/min/kg
same,CLint(mic),[1],372.0 µL/min/mg
same,T1/2,[1],3.7 min
"COc1ccc(N(C)C(=O)[C@H](Cc2ccccc2)NC(=O)CN2CCN(C(=O)Cc3c[nH]c4ccc(O)cc34)CC2=O)cc1 [7e, (S)-2-(2-(4-(2-(5-hydroxy-1H-indol-3-yl)acetyl)-2-oxopiperazin-1-yl)acetamido)-N-(4-methoxyphenyl)-N-methyl-3-phenylpropanamide]",EC50,HIV-1 (IIIB),198 ± 9.74 µM
same,EC50,HIV-2 (ROD),186 ± 4.42 µM
same,CC50 at 5 days,[2],> 209 µM
"COc1ccc(N(C)C(=O)[C@H](Cc2cc(F)cc(F)c2)NC(=O)CN2CCN(C(=O)Cc3c[nH]c4ccc(F)cc34)CC2=O)cc1 [F2-7f, (S)-3-(3,5-difluorophenyl)-2-(2-(4-(2-(5-fluoro-1H-indol-3-yl)acetyl)-2-oxopiperazin-1-yl)acetamido)-N-(4-methoxyphenyl)-N-methylpropanamide]",EC50,HIV-1 (IIIB),5.89 ± 2.03 µM
same,EC50,HIV-2 (ROD),5.07 ± 0.63 µM
same,CC50,MT-4 cells,16.4 ± 3.38 µM
same,Kd,HIV-1 CA monomer,16.1 ± 1.32 µM
same,Kd,HIV-1 CA hexamer,7.2 ± 1.1 µM
same,koff times higher than that of PF74,HIV-1 CA hexamer; CA hexamers,approximately 8.5 times
same,Ratio KD Monomer/KD Hexamer,HIV-1 CA hexamer; SPR,2.230
same,koff Hexamer,HIV-1 CA hexamer; off-rate measured for HIV-1 CA hexamer,0.151 ± 0.028 s⁻¹
same,Remaining (NCF = 60 min),"[1]; 1 h, 1 μM",103.5%
same,Remaining (T = 60 min),"[1]; 1 h, 1 μM",0.0%
same,CLint scaled at 1 μM,in vitro [3],2480 mL/min/kg
same,half-life at 1 μM,in vitro [3],0.5 min
same,microsomal CLint at 1 μM,in vitro [3],2760 µL/min/mg
same,half-life at 2 μM,in vitro [4],> 289 min
same,"remaining at 0 h, 2 μM",in vitro [4],100%
same,"remaining at 10 min, 2 μM",in vitro [4],98%
same,"remaining at 0.5 h, 2 μM",in vitro [4],97.8%
same,"remaining at 1 h, 2 μM",in vitro [4],90.9%
same,"remaining at 2 h, 2 μM",in vitro [4],86.9%
